Paper PMC12067350, “Discovery of Thieno[3,2‑b]pyridine-5-carboxamide and 2,3-Difluorobenzamide Negative Allosteric Modulators of Metabotropic Glutamate Receptor Subtype 5” (ACS Medicinal Chemistry Letters, 2025)

Experiments:
[1] = Rat IV/PO pharmacokinetics; assay type: in vivo, Sprague-Dawley rat; settings: plasma, IV 1 mg/kg; for MRT / clearance / half-life / Vd: male Sprague-Dawley rats (n = 2); for clearance: read-out: CLp; for half-life: read-out: Elim. t 1/2 (converted); for Vd: read-out: V ss
Description: (1700 rcf, 5 minutes, 4 °C) to obtain plasma sample. […]
All brain and plasma samples were stored at -80 °C until analysis by LC-MS/MS.
Male Sprague-Dawley rats were used for discrete pharmacokinetic studies. Compounds in ethanol:
PEG400: saline (1:4:5 v/v/v) were administered intra-venously in two rats at 1 mg/kg (IV PK). Two rats were also gavaged at 10 mg/kg with compounds in 10% Tween 80 in water (PO PK). Blood samples were collected from all […] at […] different time points post-dose (0.25, 0.50, 1.0, 2.0, 4.0, 7.0 and 24 hr) and plasma was prepared as described above. The concentration of compounds in plasma was quantified by LC/MS/MS as described below.
The IV PK experiment was used to determine clearance, Volume of distribution and half-life. The PO experiments were used to determine exposure and oral bioavailability. PK parameters were calculated using Phoenix WinNonlin software (version 8.1).
Samples preparation for bioanalysis
Plasma samples from the in-life phase of the study were thawed at ambient temperature (benchtop), and then aliquots (20 µL per sample) were transferred to a 96-shallow-well (V-bottom) plate. Matrix-matched quality control (QC) samples and standard curves of VU6031545 and VU6024945 (1 mg/mL DMSO stock solution) were prepared in blank rat plasma (K2EDTA-treated) or blank brain homogenate via serial dilution and transferred (20 µL each) to the plate along with multiple blank plasma and brain homogenate samples. Acetonitrile (120 µL) containing IS (10 nM carbamazepine) was added to each well of the plate to precipitate protein. The plate was then centrifuged (4000 rcf, 5 minutes, ambient temperature), and resulting supernatants (60 µL each) were transferred to a new 96-shallow-well (V-bottom) plate containing an equal volume (60 µL per well) of water (Milli-Q purified). The plate was then sealed in preparation for LC-MS/MS analysis. […]

CYP3A4 = target: T1, CYP3A4 (Homo sapiens, UniProt P08684); assay: Cytochrome P450 inhibition using human liver microsomes, CYP3A4; assay type: in vitro ADME; settings: read-out: CYP 450 IC50, 3A4
T1 construct: from tissue; host or cells: human liver microsomes
Description: Cytochrome P450 inhibition using Liver Microsomes.
The ability of compounds to inhibit cytochrome P450s (CYPs) was tested using human liver microsomes and a cocktail of substrates specific for CYP1A2, 2C9, 2D6 and 3A4. Compounds were incubated at 37C in presence of human liver microsomes (0.1 mg/ml) at 30, 10, 3, 1, 0.3 and 0.1 µM. A cocktail of substrate was also added for each CYP tested: phenacetin (10 µM, CYP1A2), diclofenac (5 µM, CYP2C9), dextromethorphan (5 µM, CYP2D6) and midazolam (2 µM, CYP3A4). HLM were also incubated with the control inhibitor miconazole at 3, 1, 0.3, 0.1, 0.03 and 0.01 µM. […]
The concentrations of CYP-specific metabolites generated at the end of the reaction were quantified by mass spectrometry using standard curves for each metabolite: acetaminophen (CYP1A2), 4-hydroxydiclofenac (CYP2C9), dextrophan (CYP2D6) and 1-hydroxymidazolam (CYP3A4). A concentration response curve for each metabolite was generated and IC50s were calculated using Prism. The LC-MS/MS transitions for metabolite quantifications are as follows. […]
Prepared samples were injected (10 µL each) onto an AB Sciex Triple Quad 4500 mass spectrometer system with an Agilent 1260 Infinity II pump and autosampler. […] Quantitation of compounds was performed via AB Sciex Multiquant software using the raw analyte:IS peak area ratios. […]

[2] = Binding in plasma from human (equilibrium dialysis); assay type: in vitro ADME; settings: fraction unbound
Description: Binding in plasma from rat and human.
Determination of compounds’ fraction unbound (f u) in plasma from rat and human was conducted in vitro via equilibrium dialysis using HTDialysis membrane plates. Dialysis membranes (four paired strips per HTD assay) were hydrated as described by the manufacturer and inserted into the HTD plate, which was assembled and prepared for sample addition by the dispensing of blank buffer (DPBS, 100 µL/well) into the ‘top half’ of each membrane-split well. Each compound was diluted into plasma from each species (5 µM final concentration), which was aliquoted in triplicate to the ‘bottom half’ of the prepared HTD plate wells. The HTD plate was sealed and incubated for 6 hours at 37 °C. Following incubation, each well (both top and bottom halves) were transferred (20 µL) to the corresponding wells of a 96-shallow-well (V-bottom) plate. The daughter plates were then matrix-matched (buffer side wells received equal volume of plasma, and plasma side wells received equal volume of buffer), and extraction solution (120 µL; acetonitrile containing 50 nM carbamazepine as IS) was added to all wells of both daughter plates to precipitate protein and extract test article. The plates were then sealed and centrifuged (3500 rcf) for 10 minutes at ambient temperature. Supernatant (60 µL) from each well of the daughter plates was then transferred to the corresponding wells of new daughter plates (96-shallow-well, V bottom) containing water (Milli-Q, 60 µL/well), and the plates were sealed in preparation for LC-MS/MS analysis (see below). fu was calculated as (analyte to IS MS peak area ratio from Trans-buffer side) / (analyte to IS MS peak area ratio from Cis-plasma side). Mean values for each species were calculated from 3 replicates. […]
Mean values for each species were calculated from 3 replicates.

CYP2C9 = target: T2, CYP2C9 (Homo sapiens, UniProt P11712); assay: Cytochrome P450 inhibition using human liver microsomes, CYP2C9; assay type: in vitro ADME; settings: read-out: CYP 450 IC50, 2C9
T2 construct: from tissue; host or cells: human liver microsomes

[3] = male Sprague-Dawley rats, PO 10 mg/kg, read-out: %F (oral bioavailability)

T1 sequence (P08684 whole entry): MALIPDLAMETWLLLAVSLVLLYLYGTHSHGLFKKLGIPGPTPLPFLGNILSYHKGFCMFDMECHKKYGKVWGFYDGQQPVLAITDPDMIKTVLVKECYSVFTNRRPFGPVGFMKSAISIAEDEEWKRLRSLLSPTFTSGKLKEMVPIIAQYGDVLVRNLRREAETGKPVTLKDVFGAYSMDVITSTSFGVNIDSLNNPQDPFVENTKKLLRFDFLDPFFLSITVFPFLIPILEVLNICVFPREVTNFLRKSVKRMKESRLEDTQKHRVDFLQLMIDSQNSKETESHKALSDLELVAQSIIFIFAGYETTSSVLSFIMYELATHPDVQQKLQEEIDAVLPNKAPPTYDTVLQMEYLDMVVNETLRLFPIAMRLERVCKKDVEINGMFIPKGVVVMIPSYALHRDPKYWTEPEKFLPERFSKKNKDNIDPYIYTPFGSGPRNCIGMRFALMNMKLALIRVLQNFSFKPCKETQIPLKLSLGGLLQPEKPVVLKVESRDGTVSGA
T2 sequence (P11712 whole entry): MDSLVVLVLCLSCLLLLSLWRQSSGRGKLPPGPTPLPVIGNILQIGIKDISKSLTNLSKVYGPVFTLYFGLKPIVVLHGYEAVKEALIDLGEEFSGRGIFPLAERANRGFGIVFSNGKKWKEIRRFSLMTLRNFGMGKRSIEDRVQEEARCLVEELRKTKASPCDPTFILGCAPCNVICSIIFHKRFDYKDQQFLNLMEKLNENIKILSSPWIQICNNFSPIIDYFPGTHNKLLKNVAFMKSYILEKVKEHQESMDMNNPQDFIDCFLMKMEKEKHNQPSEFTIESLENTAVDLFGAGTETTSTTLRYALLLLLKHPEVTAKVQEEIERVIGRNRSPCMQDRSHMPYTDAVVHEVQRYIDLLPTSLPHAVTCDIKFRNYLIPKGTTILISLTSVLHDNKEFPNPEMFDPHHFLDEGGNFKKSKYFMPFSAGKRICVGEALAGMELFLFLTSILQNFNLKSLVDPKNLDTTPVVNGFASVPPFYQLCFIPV

Row | MRT [1] | clearance [1] | half-life [1] | Vd [1] | bioavailability [1, 3] | IC50 (CYP3A4) | human f u,plasma [2] | IC50 (CYP2C9) | bioavailability at 24 h [1, 3] | Structure (SMILES)
1 | 2.45 h | 49.3 mL/min/kg | 3.42 h | 6.67 L/kg | > 100% | > 30 µM | 0.020 | > 30 µM | – | Cc1csc(NC(=O)c2cc(O[C@@H]3CCOC3)c3sccc3n2)n1 [19aA]
2 | 1.44 h | 31.3 mL/min/kg | 1.78 h | 2.89 L/kg | 17% | > 30 µM | 0.069 | > 30 µM | 16.6% | Cc1csc(NC(=O)c2cc(O[C@@H]3CCOC3)cc(F)c2F)n1 [27cA]
